According to ChEMBL document CHEMBL3431459, “Roche carnitine palmitoyltransferase modulator screening data (supplementary data associated with the publication CHEMBL2216752)”:
In brackets after ≈: the same amount, converted by molar mass.

Legend:
[1] = target: T1, Carnitine O-palmitoyltransferase 2, mitochondrial (Homo sapiens, UniProt P23786); assay: (§1) SUPPLEMENTARY: Inhibition of Carnitine palmitoyltransferase 2
T1 sequence (P23786 whole entry): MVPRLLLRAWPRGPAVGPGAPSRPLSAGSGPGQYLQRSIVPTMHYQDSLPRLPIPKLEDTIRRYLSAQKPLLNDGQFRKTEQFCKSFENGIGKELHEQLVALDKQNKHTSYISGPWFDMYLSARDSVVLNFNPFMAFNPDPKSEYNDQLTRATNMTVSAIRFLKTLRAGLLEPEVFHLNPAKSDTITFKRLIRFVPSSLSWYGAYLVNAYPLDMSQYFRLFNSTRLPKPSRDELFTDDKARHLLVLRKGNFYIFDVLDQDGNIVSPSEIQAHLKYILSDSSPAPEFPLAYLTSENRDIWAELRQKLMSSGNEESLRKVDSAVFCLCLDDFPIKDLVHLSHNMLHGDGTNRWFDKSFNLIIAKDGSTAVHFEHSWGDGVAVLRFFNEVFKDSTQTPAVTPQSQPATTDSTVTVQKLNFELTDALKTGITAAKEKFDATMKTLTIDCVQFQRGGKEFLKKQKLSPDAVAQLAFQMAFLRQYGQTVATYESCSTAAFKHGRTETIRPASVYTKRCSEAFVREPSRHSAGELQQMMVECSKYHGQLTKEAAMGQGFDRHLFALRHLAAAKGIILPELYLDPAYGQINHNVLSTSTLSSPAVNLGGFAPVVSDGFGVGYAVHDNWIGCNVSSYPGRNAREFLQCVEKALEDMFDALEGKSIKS

[2] = target: T2, Carnitine O-palmitoyltransferase 2, mitochondrial (Rattus norvegicus, UniProt P18886); assay: as §1
T2 sequence (P18886 whole entry): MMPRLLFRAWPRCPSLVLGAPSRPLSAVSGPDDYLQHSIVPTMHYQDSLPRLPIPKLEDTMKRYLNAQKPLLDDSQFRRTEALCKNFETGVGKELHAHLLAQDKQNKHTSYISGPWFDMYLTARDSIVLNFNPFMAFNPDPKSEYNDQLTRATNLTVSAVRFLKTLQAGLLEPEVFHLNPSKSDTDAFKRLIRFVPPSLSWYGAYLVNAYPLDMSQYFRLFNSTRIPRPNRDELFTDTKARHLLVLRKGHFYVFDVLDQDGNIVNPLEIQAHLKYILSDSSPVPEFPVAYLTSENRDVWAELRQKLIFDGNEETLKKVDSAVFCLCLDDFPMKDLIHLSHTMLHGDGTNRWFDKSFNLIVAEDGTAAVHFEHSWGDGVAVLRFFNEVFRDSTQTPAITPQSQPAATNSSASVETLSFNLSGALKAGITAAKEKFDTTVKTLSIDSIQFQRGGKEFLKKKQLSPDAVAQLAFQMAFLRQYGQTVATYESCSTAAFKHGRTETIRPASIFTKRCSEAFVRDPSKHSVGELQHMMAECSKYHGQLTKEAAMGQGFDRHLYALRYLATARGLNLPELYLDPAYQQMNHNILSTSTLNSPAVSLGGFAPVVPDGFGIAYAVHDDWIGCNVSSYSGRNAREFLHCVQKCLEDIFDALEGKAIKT

[3] = SUPPLEMENTARY: PAMPA permeability assay; assay type: physicochemical; conditions: read-out: Permeability
[4] = target: T3, Carnitine O-palmitoyltransferase 1, liver isoform (Rattus norvegicus, UniProt P32198); assay: SUPPLEMENTARY: Inhibition of Carnitine palmitoyltransferase 1, liver isoform
T3 sequence (P32198 whole entry): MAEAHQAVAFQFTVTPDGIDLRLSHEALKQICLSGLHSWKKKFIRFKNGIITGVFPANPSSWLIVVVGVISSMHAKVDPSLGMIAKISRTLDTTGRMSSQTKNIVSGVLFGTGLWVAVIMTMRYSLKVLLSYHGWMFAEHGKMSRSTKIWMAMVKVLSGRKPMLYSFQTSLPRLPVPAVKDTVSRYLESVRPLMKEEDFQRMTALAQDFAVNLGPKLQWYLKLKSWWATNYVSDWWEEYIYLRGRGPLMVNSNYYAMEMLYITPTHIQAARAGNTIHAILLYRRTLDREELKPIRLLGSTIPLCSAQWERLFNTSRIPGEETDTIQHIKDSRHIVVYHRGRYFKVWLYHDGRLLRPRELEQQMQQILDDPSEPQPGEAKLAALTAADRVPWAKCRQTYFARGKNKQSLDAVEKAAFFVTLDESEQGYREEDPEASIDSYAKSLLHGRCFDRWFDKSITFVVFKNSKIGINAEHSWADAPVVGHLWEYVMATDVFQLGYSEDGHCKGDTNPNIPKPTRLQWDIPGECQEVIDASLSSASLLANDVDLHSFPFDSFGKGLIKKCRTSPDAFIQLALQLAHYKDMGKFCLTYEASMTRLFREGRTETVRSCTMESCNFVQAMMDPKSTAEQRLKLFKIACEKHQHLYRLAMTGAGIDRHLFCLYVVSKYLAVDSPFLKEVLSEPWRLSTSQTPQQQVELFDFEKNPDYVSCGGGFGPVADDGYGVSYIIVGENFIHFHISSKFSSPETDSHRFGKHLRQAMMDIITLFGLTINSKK

[5] = SUPPLEMENTARY: Lyophilisation Solubility Assay (LYSA); assay type: physicochemical; conditions: read-out: Kinetic_solubility
[6] = target: T4, Carnitine O-palmitoyltransferase 1, muscle isoform (Homo sapiens, UniProt Q92523); assay: SUPPLEMENTARY: Inhibition of Carnitine palmitoyltransferase 1, muscle isoform; set-up: species or system Muscle tissue
T4 sequence (Q92523 whole entry): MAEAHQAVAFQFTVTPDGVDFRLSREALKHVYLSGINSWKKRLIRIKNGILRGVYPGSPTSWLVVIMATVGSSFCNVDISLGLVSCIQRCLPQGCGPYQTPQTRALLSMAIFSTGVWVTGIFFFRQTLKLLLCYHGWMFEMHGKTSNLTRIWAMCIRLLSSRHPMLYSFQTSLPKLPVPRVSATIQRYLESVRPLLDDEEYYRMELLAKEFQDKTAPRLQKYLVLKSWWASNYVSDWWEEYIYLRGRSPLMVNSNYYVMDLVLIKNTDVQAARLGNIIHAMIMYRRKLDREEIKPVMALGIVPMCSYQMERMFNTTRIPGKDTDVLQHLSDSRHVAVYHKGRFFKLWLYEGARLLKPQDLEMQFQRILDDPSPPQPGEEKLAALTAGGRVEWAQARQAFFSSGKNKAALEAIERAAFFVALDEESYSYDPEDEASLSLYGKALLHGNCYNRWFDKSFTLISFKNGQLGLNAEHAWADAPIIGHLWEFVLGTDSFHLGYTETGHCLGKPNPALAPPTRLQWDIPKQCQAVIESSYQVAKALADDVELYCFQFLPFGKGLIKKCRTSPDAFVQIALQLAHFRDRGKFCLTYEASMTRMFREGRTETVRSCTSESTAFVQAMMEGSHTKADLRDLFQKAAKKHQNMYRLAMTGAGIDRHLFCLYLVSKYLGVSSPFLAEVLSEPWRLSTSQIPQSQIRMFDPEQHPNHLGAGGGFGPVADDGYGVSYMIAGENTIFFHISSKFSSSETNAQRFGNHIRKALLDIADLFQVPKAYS

[7] = SUPPLEMENTARY: Lipophilicity (log D) Determination by high-throughput shake-flask; assay type: physicochemical; conditions: octanol/water

| Compound | IC50 [1] [µM] | IC50 [2] [µM] | Papp [3] [×10⁻⁶ cm/s] | IC50 [4] [µM] | solubility kinetic [5] [µg/mL] | IC50 [6] [µM] | logD [7] |
| --- | --- | --- | --- | --- | --- | --- | --- |
| O=C(COc1ccccc1)N1CCCC[C@@H]1c1nc(-c2cccnc2)cs1 | 16.7 | 32.8 | 3.8 | 0.214 | 37 (≈ 97.5 µM) | 71.5 | 3.15 |
| COc1ccc(Cl)cc1S(=O)(=O)N1CCc2c(C)cc(C(=O)Nc3ccc(CC(=O)O)cc3)cc21 | 98.4 | > 100 | 3.07 | 0.238 | 37 (≈ 71.8 µM) | 0.447 | 0.62 |
| CS(=O)(=O)c1ccc(-c2csc([C@H]3CCCCN3C(=O)COc3ccccc3)n2)cc1 | 1.86 | > 100 | 2.11 | 0.327 | 1 (≈ 2.19 µM) | 6.12 | > 3 |
| COc1ccc(Cl)cc1S(=O)(=O)N1CCc2ccc(C(=O)Nc3ccc(C(=O)O)c(F)c3)cc21 | 1.37 | 4.86 | 1.67 | 0.0663 | 26 (≈ 51.5 µM) | 0.989 | 0.38 |
| COc1ccc(Cl)cc1S(=O)(=O)N1COc2ccc(C(=O)Nc3ccc(C(=O)O)c(F)c3)cc21 | 3.45 | 20.5 | 1.92 | 0.0947 | 30 (≈ 59.2 µM) | 2.08 | 0.35 |
| N#Cc1ccc(-c2csc([C@H]3CCCCN3C(=O)COc3ccccc3)n2)cc1 | 41.6 | > 100 | 1.95 | 0.245 | < 1 | > 100 | > 3 |
| O=C(O)c1cccc(-c2nc([C@H]3CCCCN3C(=O)COc3ccccc3)cs2)c1 | 23 | > 100 | 2.35 | 0.529 | > 511 | 95.9 | 0.92 |
| O=C(O)Cc1ccc(NC(=O)c2ccc3c(c2)N(S(=O)(=O)c2cccc(Cl)c2)CC3)cc1 | > 100 | > 100 | 3.65 | 0.0798 | 20 (≈ 42.5 µM) | 4.5 | 0.48 |
| O=C(COc1ccccc1)N1CCCC[C@@H]1c1nc(-c2ccccc2)cs1 | > 100 | > 100 | 1.48 | 0.306 | < 1 | > 100 | 3.8 |
| COc1ccc(-c2nc([C@H]3CCCCN3C(=O)COc3ccccc3)cs2)cn1 | 58.9 | > 100 | 0.3 | 0.108 | 2 (≈ 4.88 µM) | > 100 | > 3 |
| O=C(O)c1ccc(-c2csc([C@H]3CCCCN3C(=O)COc3ccccc3)n2)cc1 | 10.6 | 42.1 | 5.18 | 0.496 | > 563 | 29 | 1.09 |
| CC(=O)Nc1ccc(-c2nc([C@H]3CCCCN3C(=O)COc3ccccc3)cs2)cc1 | > 100 | > 100 | 1.23 | 0.179 | 1 (≈ 2.3 µM) | > 100 | 3.72 |
| O=C(COc1ccccc1)N1CCCC[C@@H]1c1csc(-c2ccc(C(F)(F)F)nc2)n1 | > 100 | > 100 | 1.31 | 0.985 | < 1 | > 100 | > 3 |
| O=C(COc1ccccc1)N1CCCC[C@@H]1c1nc(-c2ccc(Cl)nc2)cs1 | 62.1 | > 100 | 1.25 | 0.305 | 1 (≈ 2.42 µM) | > 100 | > 3 |
| O=C(COc1ccccc1)N1CCCC[C@@H]1c1nc(-c2ccccn2)cs1 |  |  | 9.04 | 0.128 | 24 (≈ 63.2 µM) | > 100 | 3.37 |
| Cc1ccc(-c2nc([C@H]3CCCCN3C(=O)COc3ccccc3)cs2)cn1 | 24.3 | 88.3 | 2.07 | 0.0605 | 37 (≈ 94 µM) | 36 | > 3 |
| O=C(COc1ccccc1)N1CCCC[C@@H]1c1csc(-c2ccccn2)n1 | > 100 | > 100 | 4.83 | 0.108 | 18 (≈ 47.4 µM) | > 100 | > 3 |
| O=C(O)c1cccc(-c2csc([C@H]3CCCCN3C(=O)COc3ccccc3)n2)c1 | 31.8 | 78.6 | 5.06 | 0.159 | 344 (≈ 814 µM) | > 100 | 1.06 |
| O=C(COc1ccccc1)N1CCCC[C@@H]1c1nc(-c2ccncc2)cs1 | 8.32 | 31.6 | 3.84 | 0.265 | 39 (≈ 103 µM) | > 100 | 2.95 |
